Where a SMILES comes first, the peptide text is derived from it. The star is where a group is joined. Cbz = O=C(OCc1ccccc1)*; CH2F = FC*

For data set [1], the system named is SNP cells. Kind of data set: Photodynamic cytotoxicity in SNP cells (Cell Counting Kit-8). The format is cell-based, canine. Particulars: 24 h incubation, 650-nm laser 10 mW/cm^2, viability 24 h after PDT. How it is done: We seeded 1 × 10^4 SNP cells into each well of 96-well plates (Corning Inc., New York, NY, USA) followed by overnight incubation. Cells were then incubated with various concentrations of G-Ce6 for 24 h at 37 °C. After washing with fresh media, the cells were irradiated with 650-nm light emitted by a semiconductor laser (Osada Electric Co., Ltd., Tokyo, Japan), using an optical fiber with a micro-lens delivery attachment (Pioneer Optics, Inc., Windsor Lock, CT, USA). PDT was performed at 10 mW/cm^2 in cells exposed to six concentrations of NPe6 and G-Ce6 (0, 0.064, 0.32, 1.6, 8.0, or 40.0 μg/mL) using four light doses (0, 1, 5, or 15 J/cm^2). The cells were then incubated for 24 h in the dark prior to examining cell viability using the Cell Counting Kit-8 (Dojindo, Kumamoto, Japan), according to the manufacturer’s instructions.
(In general: Tetrazolium dyes change colour on reduction, which living cells bring about.)

In data set [2] the test system is SNP cells. The data set is described as follows: Effect of a pan-caspase inhibitor on G-Ce6-PDT-induced cell death. The format is cell-based, canine. Particulars: 10 μM Z-VAD-FMK; 8 μg/mL G-Ce6; 5 J/cm^2. How it is done: SNP cells were incubated with 8 μg/mL G-Ce6 for 24 h in the presence (10 μM) or absence of Z-VAD-FMK (Medical & Biological Laboratories Co. Ltd., Aichi, Japan), which is a pan-caspase inhibitor. After washing with fresh media, the cells were irradiated with 650-nm laser light (10 mW/cm^2, 5 J/cm^2) emitted by a semiconductor laser, using an optical fiber with a microlens delivery attachment. Apoptosis was assessed at 4 h after laser irradiation using the Muse Annexin V and Dead Cell Assay kit.

On the set-up of data set [3]: method as in earlier work. Particulars: cited from earlier work.

`C=Cc1c(C)c2cc3nc(c(CC(=O)N[C@@H](CC(=O)[O-])C(=O)[O-])c4[nH]c(cc5nc(cc1[nH]2)C(C)=C5CC)c(C)c4C(=O)[O-])[C@@H](CCC(=O)[O-])[C@@H]3C.[Na+].[Na+].[Na+].[Na+]` [NPe6, mono-L-aspartyl chlorin e6, reference compound]: the entries for the “IC50 against SNP cells” value in the data set with SNP cells [1] (light dose 1 J/cm^2), in the data set with SNP cells [1] (light dose 5 J/cm^2) and in the data set with SNP cells [1] (light dose 15 J/cm^2) were 75.2 µg/mL, 30.4 µg/mL and 30.6 µg/mL, respectively.
Take `COC(=O)C[C@H](NC(=O)[C@H](C)NC(=O)[C@@H](NC(=O)OCc1ccccc1)C(C)C)C(=O)CF` [Z-VAD-FMK, reference compound] (Cbz-Val-Ala-Asp(OMe)-CH2F): the “Influence on number of Annexin V-positive cells and cytotoxicity induced by G-Ce6-mediated PDT” value with SNP cells [2] was “did not influence”.
In general, AUC refers to the area under the concentration-time curve, a measure of exposure. As for porfimer sodium, in data set [3], the exposure (AUC) is 1670.2 ± 71.6 µg·h/mL and the T1/2 is listed as 44.22 ± 8.10 h.

The values above are taken from paper PMC6562844, “A Basic Study of Photodynamic Therapy with Glucose-Conjugated Chlorin e6 Using Mammary Carcinoma Xenografts” (Cancers, 2019).
